The target of assay [1] is T1, Mu-type opioid receptor (Cavia porcellus, UniProt P97266). Put plainly: Displacement of endomorphin-2 from mu opioid receptor in guinea pig ileum. It is filed as tissue-based, Hartley. To be noted: read-out: pA2 (converted).
In assay [2] the target is Mu-type opioid receptor (Cavia porcellus) (UniProt P97266). Put plainly: Maximal inhibition of muscle contraction in guinea pig ileum at 10000 nM. Also noted: scale not given: the % may be the effect or the level left. It is filed as functional, tissue-based.
The target of assay [3] is Delta-type opioid receptor (Rattus norvegicus, UniProt P33533). In words: Displacement of [3H]deltorphin-II from delta opioid receptor in rat brain synaptosomal membranes. It is filed as cell membranes, Sprague-Dawley, Membrane. On the technique in general: Displacement assays read how much labelled ligand stays bound in the presence of the test substance.
For assay [4], the target named is Mu-type opioid receptor (Rattus norvegicus, UniProt P33535). In words: Displacement of [3H]DAMGO from mu opioid receptor expressed in rat brain synaptosomal membranes. It is filed as cell membranes, Sprague-Dawley, Membrane.
The target of assay [5] is Opioid receptors; mu & delta (Rattus norvegicus) (UniProt P33533+P33535). In words: Selectivity ratio of rat mu opioid receptor over rat delta opioid receptor. It counts as protein assay.
Assay [6] deals with T2, Delta-type opioid receptor (Mus musculus, UniProt P32300). In words: Agonistic activity at delta opioid receptor in mouse vas deferens. It is filed as functional, tissue-based.
In assay [7] the target is T2, Delta-type opioid receptor. Put plainly: Displacement of deltorphin-II from delta opioid receptor in mouse vas deferens. To be noted: read-out: pA2 (converted).
Assay [8] concerns the target Delta-type opioid receptor (Mus musculus) (UniProt P32300). In words: Maximal inhibition of muscle contraction in mouse vas deferens at 10000 nM. Set-up: scale not given: the % may be the effect or the level left. To be noted: Muscle tissue. It counts as functional, tissue-based.
For assay [9], the target named is T1, Mu-type opioid receptor. In words: Agonistic activity at mu opioid receptor in myenteric plexus longitudinal muscle of guinea pig ileum. It counts as functional, tissue-based, Hartley.

Experimental findings from ChEMBL document CHEMBL1141223, “Potent Dmt-Tic pharmacophoric delta- and mu-opioid receptor antagonists” (J Med Chem, 2005) are described below.

Each structure is given as a SMILES string.

T2 sequence (P32300 whole entry): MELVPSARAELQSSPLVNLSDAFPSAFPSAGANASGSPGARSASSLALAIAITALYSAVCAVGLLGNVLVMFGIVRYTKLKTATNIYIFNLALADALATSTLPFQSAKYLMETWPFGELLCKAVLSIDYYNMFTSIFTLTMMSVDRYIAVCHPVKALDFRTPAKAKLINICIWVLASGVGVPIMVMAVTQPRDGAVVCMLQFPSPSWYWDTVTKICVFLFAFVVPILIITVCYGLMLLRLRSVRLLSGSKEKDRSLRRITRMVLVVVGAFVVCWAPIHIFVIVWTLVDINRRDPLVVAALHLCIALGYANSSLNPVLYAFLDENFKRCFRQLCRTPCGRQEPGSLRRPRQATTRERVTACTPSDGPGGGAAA
Delta-type opioid receptor (Mus musculus), sequence (P32300 whole entry): as above
Opioid receptors; mu & delta (Rattus norvegicus), sequence (P33533 whole entry, looked up): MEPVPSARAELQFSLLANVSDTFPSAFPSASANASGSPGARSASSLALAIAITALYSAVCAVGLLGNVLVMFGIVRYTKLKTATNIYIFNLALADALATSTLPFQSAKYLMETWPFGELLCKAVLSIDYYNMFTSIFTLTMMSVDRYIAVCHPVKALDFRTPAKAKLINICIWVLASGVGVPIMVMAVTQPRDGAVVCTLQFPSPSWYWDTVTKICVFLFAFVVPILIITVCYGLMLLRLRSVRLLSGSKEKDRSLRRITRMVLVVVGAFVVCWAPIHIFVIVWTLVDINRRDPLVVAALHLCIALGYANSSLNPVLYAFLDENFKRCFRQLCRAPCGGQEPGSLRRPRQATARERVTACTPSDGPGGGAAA
Opioid receptors; mu & delta (Rattus norvegicus), sequence (P33535 whole entry, looked up): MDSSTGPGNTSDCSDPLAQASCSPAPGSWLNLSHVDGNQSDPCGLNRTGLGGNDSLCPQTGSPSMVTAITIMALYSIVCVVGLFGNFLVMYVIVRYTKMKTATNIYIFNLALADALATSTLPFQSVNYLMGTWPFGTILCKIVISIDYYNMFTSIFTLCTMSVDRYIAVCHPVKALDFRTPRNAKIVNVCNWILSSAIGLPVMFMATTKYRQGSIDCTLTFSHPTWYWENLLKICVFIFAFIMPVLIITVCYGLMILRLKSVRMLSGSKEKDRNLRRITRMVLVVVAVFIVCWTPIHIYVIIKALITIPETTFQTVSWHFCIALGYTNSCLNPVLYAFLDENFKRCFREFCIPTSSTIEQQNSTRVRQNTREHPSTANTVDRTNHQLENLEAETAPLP
Delta-type opioid receptor (Rattus norvegicus, UniProt P33533), sequence (P33533 whole entry): as the sequence (P33533 whole entry, looked up) above
T1 sequence (P97266 whole entry): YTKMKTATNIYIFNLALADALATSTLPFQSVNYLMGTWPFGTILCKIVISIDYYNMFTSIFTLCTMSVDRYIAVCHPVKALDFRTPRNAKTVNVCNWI
Mu-type opioid receptor (Cavia porcellus), sequence (P97266 whole entry): as above
Mu-type opioid receptor (Rattus norvegicus, UniProt P33535), sequence (P33535 whole entry): as the sequence (P33535 whole entry, looked up) above

Consider `Cc1cc(O)cc(C)c1C[C@@H](C(=O)N1Cc2ccccc2CC1C(=O)NCCCCCCNC(=O)C1Cc2ccccc2CN1C(=O)[C@H](Cc1c(C)cc(O)cc1C)N(C)C)N(C)C` (stereo partly specified), for which the Kb at Mu-type opioid receptor [1] was 4.57 nM; in [7], 0.00525 nM. Besides, the Activity in assay [2] and in assay [8] was less than 1% each time. The Ki (in general, a dissociation constant, usually derived from enzyme kinetics or from competition with a known ligand) in assay [3] worked out at 0.06 nM; at Mu-type opioid receptor [4], 2.21 nM. Also, the Ratio Ki in assay [5] is 37. The IC50 (in assay [6]; at Mu-type opioid receptor [9]) was more than 10000 nM in each case.
As to `Cc1cc(O)cc(C)c1C[C@H](N)C(=O)N1Cc2ccccc2CC1C(=O)NCCc1nc(O)c(CCNC(=O)C2Cc3ccccc3CN2C(=O)[C@@H](N)Cc2c(C)cc(O)cc2C)nc1C` (stereo partly specified), the Kb is 166 nM at Mu-type opioid receptor [1] and 0.0186 nM in [7]. Further, the Activity was less than 27% in assay [2] and less than 1% in assay [8]. Moreover, the Ki in assay [3] amounted to 0.095 nM; at Mu-type opioid receptor [4], 2.83 nM. The Ratio Ki in assay [5] amounted to 30. Moreover, the IC50 (in [6]; on Mu-type opioid receptor [9]) was more than 10000 nM each time.
As to `Cc1cc(O)cc(C)c1C[C@H](N)C(=O)N1Cc2ccccc2CC1C(=O)NCCCc1nc(O)c(CCCNC(=O)C2Cc3ccccc3CN2C(=O)[C@@H](N)Cc2c(C)cc(O)cc2C)nc1C` (stereo partly specified), the results for the Ki (in assay [3]; at Mu-type opioid receptor [4]) were 0.155 nM and 3.08 nM, respectively. Further, the Ratio Ki in assay [5] stood at 20. Also, the results for the IC50 (in assay [6]; on Mu-type opioid receptor [9]) were more than 10000 nM and 7020 nM, respectively. Besides, the Kb in assay [7] is 0.0275 nM. The Activity in assay [8] was less than 1%.
Take `Cc1cc(O)cc(C)c1C[C@H](N)C(=O)N1Cc2ccccc2CC1C(=O)NCCCCNC(=O)C1Cc2ccccc2CN1C(=O)[C@@H](N)Cc1c(C)cc(O)cc1C` (stereo partly specified): the results for the Kb (at Mu-type opioid receptor [1]; in assay [7]) were 102 nM and 0.0309 nM, respectively. Further, the Activity in assay [2] was less than 16%; in [8] it was less than 1%. Also, the results for the Ki (in [3]; at Mu-type opioid receptor [4]) were 0.124 nM and 5.72 nM, respectively. Also, the Ratio Ki in assay [5] amounted to 46. Besides, the IC50 (in assay [6]; on Mu-type opioid receptor [9]) was more than 10000 nM throughout.
Turning to `Cc1cc(O)cc(C)c1C[C@@H](C(=O)N1Cc2ccccc2CC1C(=O)NCCCc1nc(O)c(CCCNC(=O)C2Cc3ccccc3CN2C(=O)[C@H](Cc2c(C)cc(O)cc2C)N(C)C)nc1C)N(C)C` (stereo partly specified), the Kb is 19.5 nM on Mu-type opioid receptor [1] and 0.038 nM in [7]. In addition, the Activity in assay [2] and in assay [8] was less than 1% in each case. Also, the values for the Ki (in [3]; at Mu-type opioid receptor [4]) were 0.287 nM and 1.68 nM, respectively. Besides, the Ratio Ki in assay [5] was 6. Moreover, the IC50 (in assay [6]; at Mu-type opioid receptor [9]) was more than 10000 nM throughout.
As for `Cc1cc(O)cc(C)c1C[C@H](N)C(=O)N1Cc2ccccc2CC1C(=O)NCCCCc1nc(O)c(CCNC(=O)C2Cc3ccccc3CN2C(=O)[C@@H](N)Cc2c(C)cc(O)cc2C)nc1C` (stereo partly specified), the figures for the Activity in assay [2] and in assay [8] were less than 44% and less than 1%, respectively. Further, the Ki amounted to 0.107 nM in [3] and 1.37 nM at Mu-type opioid receptor [4]. In [5], the Ratio Ki is 13. In addition, the IC50 (in assay [6]; at Mu-type opioid receptor [9]) was more than 10000 nM each time. In assay [7], the Kb was 0.0102 nM.
`Cc1cc(O)cc(C)c1C[C@H](N)C(=O)N1Cc2ccccc2CC1C(=O)NCCCCc1nc(C)c(CCCNC(=O)C2Cc3ccccc3CN2C(=O)[C@@H](N)Cc2c(C)cc(O)cc2C)nc1O` (stereo partly specified): the Kb was 112 nM at Mu-type opioid receptor [1] and 0.0339 nM in assay [7]. The Activity in [2] is less than 9%; in [8], 22%. In addition, the inhibitory constant (Ki) in assay [3] came out at 0.092 nM; at Mu-type opioid receptor [4] it was 2.28 nM. Also, in assay [5], the Ratio Ki came to 25. Moreover, the IC50 (in [6]; on Mu-type opioid receptor [9]) was more than 10000 nM in each case.
Take `Cc1cc(O)cc(C)c1C[C@H](N)C(=O)N1Cc2ccccc2CC1C(=O)NCc1nc(O)c(CNC(=O)C2Cc3ccccc3CN2C(=O)[C@@H](N)Cc2c(C)cc(O)cc2C)nc1C` (stereo partly specified): the Activity in assay [2] is less than 15%; in [8], less than 1%. The Ki was 0.163 nM in assay [3] and 3.76 nM on Mu-type opioid receptor [4]. Moreover, in [5], the Ratio Ki turned out to be 23. Also, the half-maximal inhibitory concentration (IC50) (in [6]; on Mu-type opioid receptor [9]) was more than 10000 nM throughout. For the same compound, the Kb in assay [7] was 0.00603 nM.
Consider `Cc1cc(O)cc(C)c1C[C@H](N)C(=O)N1Cc2ccccc2CC1C(=O)NCCCCc1nc(O)c(CCCNC(=O)C2Cc3ccccc3CN2C(=O)[C@@H](N)Cc2c(C)cc(O)cc2C)nc1C` (stereo partly specified), for which the Activity in assay [2] is less than 1%; in [8], less than 10%. Further, in assay [5], the Ratio Ki came out at 10.
As for `Cc1cc(O)cc(C)c1C[C@H](N)C(=O)N1Cc2ccccc2CC1C(=O)NCCCCc1[nH]c(=O)c(CCCNC(=O)C2Cc3ccccc3CN2C(=O)[C@@H](N)Cc2c(C)cc(O)cc2C)nc1C` (stereo partly specified), the Ki in [3] is 0.16 nM; on Mu-type opioid receptor [4], 1.56 nM. Further, the IC50 (in assay [6]; on Mu-type opioid receptor [9]) was more than 10000 nM throughout. In addition, the Kb in assay [7] is 0.0251 nM.
As to `Cc1cc(O)cc(C)c1C[C@H](N)C(=O)N1Cc2ccccc2CC1C(=O)NCCCCc1nc(O)c(CCCCNC(=O)C2Cc3ccccc3CN2C(=O)[C@@H](N)Cc2c(C)cc(O)cc2C)nc1C` (stereo partly specified), the Activity in [2] was less than 34%; in [8], less than 1%. For the same compound, the results for the Ki (in [3]; on Mu-type opioid receptor [4]) were 0.323 nM and 1.74 nM, respectively. In addition, the Ratio Ki in assay [5] was 5. Moreover, the half-maximal inhibitory concentration (IC50) (in assay [6]; at Mu-type opioid receptor [9]) was more than 10000 nM each time. Also, the Kb in [7] is 0.00871 nM.
Turning to `Cc1cc(O)cc(C)c1C[C@H](N)C(=O)N1Cc2ccccc2CC1C(=O)NCCCCCCNC(=O)C1Cc2ccccc2CN1C(=O)[C@@H](N)Cc1c(C)cc(O)cc1C` (stereo partly specified), the values for the Ki (in assay [3]; at Mu-type opioid receptor [4]) were 0.129 nM and 1.79 nM, respectively. In addition, the IC50 – broadly, the concentration that gives 50% inhibition – in [6] is more than 10000 nM. Besides, the Kb in [7] is 0.024 nM. The compound further had an Activity in assay [8] of less than 1%.
For the compound `Cc1cc(O)cc(C)c1C[C@H](N)C(=O)N1Cc2ccccc2CC1C(=O)NCCCCCCCCCCNC(=O)C1Cc2ccccc2CN1C(=O)[C@@H](N)Cc1c(C)cc(O)cc1C` (stereo partly specified), the Ki is 1.53 nM in assay [3] and 4.86 nM at Mu-type opioid receptor [4]. Besides, the Ratio Ki in assay [5] turned out to be 3. Besides, the IC50 in [6] was more than 10000 nM; at Mu-type opioid receptor [9], 5420 nM. Moreover, in assay [7], the Kb was 0.0107 nM. In assay [8], this compound showed an Activity of less than 28%.
